Measurements taken from patent US5854015A, “Method of making pure 3R-3'R stereoisomer of zeaxanthin for human ingestion” (priority 1995, dated 1998).
Values belong to the compound of their own block, whether it stands above or below them.

Columns and labels:
[1] = in vivo
Description: Birds in the C+ group are fed a standard commercial diet which contains several carotenoids; this diet also contains synthetic alpha-tocopherol (Vitamin E) as an additive.

[2] = of all known carotenoids; cited from earlier work
[3] = macular degeneration; cited from earlier work
[4] = Feeding of F. multivorum cell paste to birds or fish; type: in vivo; conditions: cell paste fed directly
Description: Although this option has not yet been fully evaluated, it is possible that the Flavobacterium multivorum cells themselves, in intact form and possibly even in a viable state, may be suitable for direct ingestion by humans. A substantial number of human foods (including cheese, yogurt, beer, etc.) contain viable or killed-but-intact microbial cells, and there is no known pathogenicity associated with the F. multivorum cells isolated by Applied Food Biotechnology, Inc. They were isolated from a relatively cold artesian waterway, and since they are adapted to living in cold water, they cannot survive or reproduce well at temperatures inside the human body. […] When fed directly in the form of a cell paste to animals such as birds or fish, these cells appear to be well-suited as delivery vehicles for zeaxanthin.

[5] = Pasteurization of cell culture by heating; type: physicochemical; conditions: stabilizers added
Description: After the stabilizing compounds are added, a bacterial cell culture can be pasteurized by heating to 55° C. for 25 minutes.
After the stabilizing compounds are added, the cell culture is pasteurized by heating to 55° C. for 25 to 50 minutes.

[6] = per-weight basis; cited from earlier work
[7] = test system: chickens; conditions: cited from earlier work
[8] = cited from earlier work

SMILES: CC(C)=CCC/C(C)=C/C=C/C(C)=C/C=C/C(C)=C/C=C/C=C(C)/C=C/C=C(C)/C=C/C=C(\C)CCC=C(C)C [lycopene]
singlet oxygen quenching [2]: best singlet oxygen quencher of all known carotenoids

SMILES: CC(C=CC=C(C)C=CC1=C(C)CCCC1(C)C)=CC=CC=C(C)C=CC=C(C)C=CC1C(C)=CC(O)CC1(C)C (stereo not drawn) [alpha-Cryptoxanthan]
Concentration in retina [1]: 1.4 ng per mg retina

SMILES: CC1=C(/C=C/C(C)=C/C=C/C(C)=C/CO)C(C)(C)CCC1 [Retinol (Vit. A)]
Concentration in retina [1]: 5.8 ng per mg retina
benefits in the retina [3]: very limited

SMILES: CC1=C[C@H](O)CC(C)(C)[C@H]1/C=C/C(C)=C/C=C/C(C)=C/C=C/C=C(C)/C=C/C=C(C)/C=C/C1=C(C)C[C@@H](O)CC1(C)C [Lutein]
Concentration in retina [1]: 1.0 ng per mg retina

SMILES: CC1=C(/C=C/C(C)=C/C=C/C(C)=C/C=C/C=C(C)/C=C/C=C(C)/C=C/C2=C(C)C[C@@H](O)CC2(C)C)C(C)(C)C[C@H](O)C1 [zeaxanthin, 3,3'-dihydroxy-β-β-carotene]
absorption and tissue deposition after feeding [4]: absorbed into the bloodstream and deposited into various tissues at expected and appropriate tissue locations
damage to zeaxanthin on pasteurization ([5]; 55° C. for 25 to 50 minutes): without damaging the zeaxanthin
damage to zeaxanthin on pasteurization ([5]; 55° C. for 25 minutes): without damaging the zeaxanthin
Concentration in retina [1]: 4.7 ng per mg retina
effectiveness in imparting color relative to lutein [6]: several times more effective
coloration of chickens fed cells and their zeaxanthin pigment ([7]; cells ATCC 21081 and 21588, U.S. Pat. No. 3,891,504): caused suitable coloration
coloring potency relative to lutein ([7]; per-weight basis, skin and egg yolks): 2-3 times

SMILES: CC1=C(/C=C/C(C)=C/C=C/C(C)=C/C=C/C=C(C)/C=C/C=C(C)/C=C/C2=C(C)C(=O)CCC2(C)C)C(C)(C)CCC1=O [Canthaxanthin]
Concentration in retina [1]: 1.7 ng per mg retina
crystal formation in retinal tissue ([8]; in vivo): can cause crystal formation which can destroy retinal cells and tissue
deposition in human skin ([8]; in vivo): is deposited in human skin
displacement of lutein in retinal tissue ([8]; in vivo): can displace lutein
retinal toxicity ([8]; ingested): shown to cause retinal maculopathy

Continued, in another order:

Concentration in retina [1]: 5.0 ng per mg retina
SMILES: Cc1c(O)cc2c(c1C)O[C@](C)(CCC[C@H](C)CCC[C@H](C)CCCC(C)C)CC2 [gamma-Tocopherol]

Detection of β-Carotene in retinas [1]: No β-Carotene was detected
SMILES: CC1=C(/C=C/C(C)=C/C=C/C(C)=C/C=C/C=C(C)/C=C/C=C(C)/C=C/C2=C(C)CCCC2(C)C)C(C)(C)CCC1 [β-Carotene]
benefits in the retina [3]: very limited

Concentration in retina [1]: 15.6 ng per mg retina
SMILES: Cc1c(C)c2c(c(C)c1O)CCC(C)(CCCC(C)CCCC(C)CCCC(C)C)O2 (stereo not drawn) [alpha-Tocopherol]
benefits in the retina [3]: very limited
